{"source": "patent US12409206B2", "about": "“Use of cyclosporine analogues for treating fibrosis” (Hepion Pharmaceuticals, Inc., priority 2020, dated 2025)", "key": {"[1]": {"test_system": "Human cardiac fibroblasts", "experiment": "Procollagen and fibronectin ELISA of spent medium, cardiac fibroblast culture", "assay_type": "cell-based", "settings": "6 days, both in the absence or presence of 0.4 ng/ml TGFβ", "protocol": "(§1) Human cardiac fibroblasts (Lonza Bioscience, Cat. #CC-2903) were cultured in 96-well plates. Treatments were applied in triplicate wells (applied 100 ul treatments per well) for 6 days. Cells were near confluence at the start of treatments. […] Spent culture medium collected at the end of treatments was assayed for procollagen and fibronectin by enzyme-linked immunosorbent assays (ELISA) (Procollagen ELISA antibody pair (ab216064) and fibronectin ELISA antibody pair (ab222262) from Abcam). Procollagen and fibronectin were not detected in medium not applied to cells. Procollagen and fibronectin levels in the medium are represented by means±SD (bars) from 3 replicate wells (open circles)."}, "[2]": {"test_system": "Human cardiac fibroblasts", "experiment": "Cell viability analysis, cardiac fibroblast culture", "assay_type": "cell-based", "settings": "end of treatment (6 days)", "protocol": "as §1"}}, "data": [{"smiles": "CC[C@@H]1NC(=O)[C@H]([C@H](O)[C@H](C)CCCCCCNC(C)=O)N(C)C(=O)[C@H](C(C)C)N(C)C(=O)[C@H](CC(C)C)N(C)C(=O)[C@H](CC(C)C)N(C)C(=O)[C@@H](C)NC(=O)[C@H](C)NC(=O)[C@H](CC(C)C)N(C)C(=O)[C@H](C(C)C)NC(=O)[C@H](CC(C)C)N(C)C(=O)[C@@H](C)N(C)C1=O", "note": "[CRV431]", "values": [{"measurement": "abundance of fibronectin in the medium", "setting": "[1]", "value": "dose-dependently decreased"}, {"measurement": "abundance of procollagen in the medium", "setting": "[1]", "value": "dose-dependently decreased"}, {"measurement": "cell viability", "setting": "[2]", "value": "none of the CRV431 treatments affected cell viability"}]}]}
